US10556907B2 (AbbVie Inc., priority 2015, dated 2020)
Where a name gives a salt, the structure may show the parent alone.

How the values were obtained:
Test in all cases: Method 1: intracellular Ca2+ release (FLIPR, Calcium 5) in recombinant CHO-K1 cells
Type in all cases: cell-based
human S1PR3 receptor = target: T1, human S1PR3 receptor (Homo sapiens, UniProt Q99500); conditions: (1): determined with method 1; read-out: S1P3 EC50
T1 construct: host or cells: CHO-K1
Outline: (§1)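 Cells expressing the receptor with promiscuous Gq/i5 are dye-loaded, equilibrated at room temperature and challenged with test compound while fluorescence is recorded by FLIPR. Potency is derived by nonlinear fitting after normalization to phospho-fingolimod.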

human S1PR5 receptor = target: T2, human S1PR5 receptor (Homo sapiens, UniProt Q9H228); conditions: agonist potency, determined with method 1 (symbols A-D); read-out: S1P5 EC50 range
T2 construct: host or cells: CHO-K1
T2 sequence (Q9H228 whole entry): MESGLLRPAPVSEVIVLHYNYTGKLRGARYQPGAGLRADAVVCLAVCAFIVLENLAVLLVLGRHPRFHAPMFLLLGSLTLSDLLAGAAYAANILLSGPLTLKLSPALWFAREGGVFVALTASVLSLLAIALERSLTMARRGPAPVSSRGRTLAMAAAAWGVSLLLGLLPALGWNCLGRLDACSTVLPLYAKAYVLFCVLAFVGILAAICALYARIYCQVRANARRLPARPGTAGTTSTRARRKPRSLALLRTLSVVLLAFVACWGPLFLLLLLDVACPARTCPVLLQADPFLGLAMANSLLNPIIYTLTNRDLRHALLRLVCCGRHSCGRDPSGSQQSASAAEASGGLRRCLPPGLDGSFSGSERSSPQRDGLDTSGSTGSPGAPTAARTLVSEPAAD
Outline: as §1

human S1PR1 receptor = target: T3, human S1PR1 receptor (Homo sapiens, UniProt P21453); conditions: (1): determined with method 1; read-out: S1P1 EC50
T3 construct: host or cells: CHO-K1
T3 sequence (P21453 whole entry): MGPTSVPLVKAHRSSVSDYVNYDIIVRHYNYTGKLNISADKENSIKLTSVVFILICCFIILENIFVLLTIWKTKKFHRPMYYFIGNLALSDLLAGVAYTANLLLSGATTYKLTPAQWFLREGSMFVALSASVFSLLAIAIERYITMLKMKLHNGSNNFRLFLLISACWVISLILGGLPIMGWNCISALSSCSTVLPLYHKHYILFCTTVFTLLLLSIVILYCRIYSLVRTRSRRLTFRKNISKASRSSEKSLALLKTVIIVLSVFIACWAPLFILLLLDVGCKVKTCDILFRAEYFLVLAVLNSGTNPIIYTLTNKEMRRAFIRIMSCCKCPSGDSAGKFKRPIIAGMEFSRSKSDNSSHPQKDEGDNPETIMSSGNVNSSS
Outline: as §1

human S1PR4 receptor = target: T4, human S1PR4 receptor (Homo sapiens, UniProt O95977); conditions: (1): determined with method 1; read-out: S1P4 EC50
T4 construct: host or cells: CHO-K1
T4 sequence (O95977 1-384): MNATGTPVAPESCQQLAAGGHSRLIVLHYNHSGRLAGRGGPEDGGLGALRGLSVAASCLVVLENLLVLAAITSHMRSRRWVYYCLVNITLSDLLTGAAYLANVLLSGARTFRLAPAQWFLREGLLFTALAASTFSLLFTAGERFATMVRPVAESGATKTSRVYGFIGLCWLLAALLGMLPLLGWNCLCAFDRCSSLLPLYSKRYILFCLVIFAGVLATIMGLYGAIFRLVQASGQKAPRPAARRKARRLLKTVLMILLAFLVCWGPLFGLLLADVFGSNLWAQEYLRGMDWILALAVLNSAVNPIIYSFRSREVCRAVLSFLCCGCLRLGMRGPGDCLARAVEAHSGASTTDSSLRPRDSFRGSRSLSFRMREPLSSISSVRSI
Outline: as §1

T1 sequence (Q99500 whole entry): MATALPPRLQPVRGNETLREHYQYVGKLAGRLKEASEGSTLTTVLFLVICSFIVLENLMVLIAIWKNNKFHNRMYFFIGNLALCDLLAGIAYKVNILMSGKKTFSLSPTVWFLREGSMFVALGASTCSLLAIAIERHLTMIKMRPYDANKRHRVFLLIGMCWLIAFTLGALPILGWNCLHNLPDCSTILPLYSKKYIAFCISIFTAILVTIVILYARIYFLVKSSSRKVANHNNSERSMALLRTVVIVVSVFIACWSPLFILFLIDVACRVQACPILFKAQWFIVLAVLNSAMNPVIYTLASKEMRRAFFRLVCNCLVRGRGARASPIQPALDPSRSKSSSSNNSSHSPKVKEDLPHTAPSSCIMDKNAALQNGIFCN

Compound: Cc1ccccc1COc1ccc(-c2ncc3c(n2)CCN(CC(C)CC(=O)O)C3)cc1C (centres unmarked) [Compound 239]
- EC50 (human S1PR3 receptor): > 1000 nM
- EC50 (human S1PR5 receptor): < 10 nM
- EC50 (human S1PR1 receptor): > 1000 nM
- EC50 (human S1PR4 receptor): > 1000 nM

Compound: CC(CC(=O)O)CN1CCc2nc(-c3ccc(OCc4cccc(Cl)c4)cc3)ncc2C1 (centres unmarked) [Compound 22, 4-(2-(4-((3-chlorobenzyl)oxy)phenyl)-7,8-dihydropyrido[4,3-d]pyrimidin-6(5H)-yl)-3-methylbutanoic acid]
- EC50 (human S1PR3 receptor): > 1000 nM
- EC50 (human S1PR5 receptor): < 10 nM
- EC50 (human S1PR1 receptor): > 1000 nM
- EC50 (human S1PR4 receptor): > 1000 nM

Compound: CC(CN1CCc2nc(-c3ccc(OCc4ccc(Cl)cc4)cc3)ncc2C1)C(=O)O (centres unmarked) [Compound 12, 3-(2-(4-((4-chlorobenzyl)oxy)phenyl)-7,8-dihydropyrido[4,3-d]pyrimidin-6(5H)-yl)-2-methylpropanoic acid]
- EC50 (human S1PR3 receptor): > 1000 nM
- EC50 (human S1PR5 receptor): < 10 nM
- EC50 (human S1PR1 receptor): > 1000 nM
- EC50 (human S1PR4 receptor): > 1000 nM

Compound: O=C(O)C1CC(N2CCc3nc(C#Cc4ccc(OCc5ccccc5)cc4)ccc3C2)C1 (centres unmarked) [Compound 125, 3-(2-((4-(benzyloxy)phenyl)ethynyl)-7,8-dihydro-1,6-naphthyridin-6(5H)-yl)cyclobutanecarboxylic acid]
- EC50 (human S1PR3 receptor): > 1000 nM
- EC50 (human S1PR5 receptor): 100 to 1000 nM
- EC50 (human S1PR1 receptor): > 1000 nM
- EC50 (human S1PR4 receptor): > 1000 nM

Compound: C[C@@H](CC(=O)O)CN1CCc2nc(-c3ccc(OCc4ccc(Cl)cc4)cc3)ncc2C1=O [Compound 267, (S)-4-(2-(4-((4-chlorobenzyl)oxy)phenyl)-5-oxo-7,8-dihydropyrido[4,3-d]pyrimidin-6(5H)-yl)-3-methylbutanoic acid]
- EC50 (human S1PR3 receptor): > 1000 nM
- EC50 (human S1PR5 receptor): 10 to 100 nM
- EC50 (human S1PR1 receptor): > 1000 nM
- EC50 (human S1PR4 receptor): > 1000 nM

Compound: CC(CC(=O)O)CN1CCc2nc(-c3ccc(OCc4cccc(F)c4)cc3)ncc2C1 (centres unmarked) [Compound 227, 4-(2-(4-((3-fluorobenzyl)oxy)phenyl)-7,8-dihydropyrido[4,3-d]pyrimidin-6(5H)-yl)-3-methylbutanoic acid]
- EC50 (human S1PR3 receptor): > 1000 nM
- EC50 (human S1PR5 receptor): < 10 nM
- EC50 (human S1PR1 receptor): > 1000 nM
- EC50 (human S1PR4 receptor): < 1000 nM

Compound: O=C(O)CCN1CCc2nc(-c3ccc(OCc4ccccc4C(F)F)cc3)ccc2C1 [Compound 165, 3-(2-(4-((2-difluoromethylbenzyl)oxy)phenyl)-7,8-dihydro-1,6-naphthyridin-6(5H)-yl)propanoic acid]
- EC50 (human S1PR3 receptor): > 1000 nM
- EC50 (human S1PR5 receptor): < 10 nM
- EC50 (human S1PR1 receptor): > 1000 nM
- EC50 (human S1PR4 receptor): > 1000 nM

Compound: O=C(O)CC1(CN2CCc3nc(-c4ccc(OCc5ccc(Cl)cc5)cc4)ncc3C2)CC1 [Compound 281, 2-((4(2-(4-((4-chlorobenzyl)oxy)phenyl)-7,8-dihydropyrido[4,3-d]pyrimidin-6(5H)-yl)methyl)cyclopropyl)acetic acid]
- EC50 (human S1PR3 receptor): > 1000 nM
- EC50 (human S1PR5 receptor): 10 to 100 nM
- EC50 (human S1PR1 receptor): > 1000 nM
- EC50 (human S1PR4 receptor): > 1000 nM

Compound: O=C(O)CCN1CCc2nc(-c3ccc(OCc4ccc(OC(F)(F)F)cc4)cc3)ncc2C1 [Compound 85, 3-(2-(4-((4-(trifluoromethoxy)benzyl)oxy)phenyl)-7,8-dihydropyrido[4,3-d]pyrimidin-6(5H)-yl)propanoic acid]
- EC50 (human S1PR3 receptor): > 1000 nM
- EC50 (human S1PR5 receptor): < 10 nM
- EC50 (human S1PR1 receptor): > 1000 nM
- EC50 (human S1PR4 receptor): > 1000 nM

Compound: CC(CN1CCc2nc(-c3ccc(OCc4cc(Cl)cc(Cl)c4)cc3)ncc2C1)C(=O)O (single isomer, unassigned) [Compound 19, 3-(2-(4-((3,5-dichlorobenzyl)oxy)phenyl)-7,8-dihydropyrido[4,3-d]pyrimidin-6(5H)-yl)-2-methylpropanoic acid]
- EC50 (human S1PR3 receptor): > 1000 nM
- EC50 (human S1PR5 receptor): < 10 nM
- EC50 (human S1PR1 receptor): > 1000 nM
- EC50 (human S1PR4 receptor): > 1000 nM

Compound: CC(C)c1ccc(C#Cc2ccc3c(n2)CCN(C2CC(C(=O)O)C2)C3)cc1 (centres unmarked) [Compound 124, 3-(2-((4-isopropylphenyl)ethynyl)-7,8-dihydro-1,6-naphthyridin-6(5H)-yl)cyclobutanecarboxylic acid]
- EC50 (human S1PR3 receptor): > 1000 nM
- EC50 (human S1PR5 receptor): 1000 to 10000 nM
- EC50 (human S1PR1 receptor): > 1000 nM
- EC50 (human S1PR4 receptor): > 1000 nM

Compound: CC(CCC(=O)O)N1CCc2nc(-c3ccc(OCc4ccc(Cl)cc4)cc3)ncc2C1 (centres unmarked) [Compound 66, 4-(2-(4-((4-chlorobenzyl)oxy)phenyl)-7,8-dihydropyrido[4,3-d]pyrimidin-6(5H)-yl)pentanoic acid]
- EC50 (human S1PR3 receptor): > 1000 nM
- EC50 (human S1PR5 receptor): < 10 nM
- EC50 (human S1PR1 receptor): > 1000 nM
- EC50 (human S1PR4 receptor): > 1000 nM

Compound: O=C(O)C1CC(N2CCc3nc(C#Cc4ccccc4Cl)ncc3C2)C1 (centres unmarked) [Compound 60, 3-(2-((2-chlorophenyl)ethynyl)-7,8-dihydropyrido[4,3-d]pyrimidin-6(5H)-yl)cyclobutanecarboxylic acid]
- EC50 (human S1PR3 receptor): > 1000 nM
- EC50 (human S1PR5 receptor): 1000 to 10000 nM
- EC50 (human S1PR1 receptor): > 1000 nM
- EC50 (human S1PR4 receptor): > 1000 nM

Compound: CC(CC(=O)O)CN1CCc2nc(-c3ccc(OCc4ccc(C(C)(C)C)cc4)cc3F)ncc2C1 (centres unmarked) [Compound 283, 4-[2-[4-[(4-tert-butylphenyl)methoxy]-2-fluoro-phenyl]-7,8-dihydro-5H-pyrido[4,3-d]pyrimidin-6-yl]-3-methyl-butanoic acid 2,2,2-trifluoroacetic acid salt]
- EC50 (human S1PR3 receptor): > 1000 nM
- EC50 (human S1PR5 receptor): 10 to 100 nM
- EC50 (human S1PR1 receptor): > 1000 nM
- EC50 (human S1PR4 receptor): > 1000 nM

Compound: Cc1cccc(COc2ccc(-c3ncc4c(n3)CCN(CC(C)CC(=O)O)C4)cc2)c1 (centres unmarked) [Compound 230, 3-methyl-4-(2-(4-((3-methylbenzyl)oxy)phenyl)-7,8-dihydropyrido[4,3-d]pyrimidin-6(5H)-yl)butanoic acid]
- EC50 (human S1PR3 receptor): > 1000 nM
- EC50 (human S1PR5 receptor): < 10 nM
- EC50 (human S1PR1 receptor): < 1000 nM
- EC50 (human S1PR4 receptor): > 1000 nM

Compound: CC(C)(C)c1ccc(COc2ccc(-c3ccc4c(n3)CCN(CCC(=O)O)C4)cc2)cc1 [Compound 156, 3-(2-(4-((4-(tert-butyl)benzyl)oxy)phenyl)-7,8-dihydro-1,6-naphthyridin-6(5H)-yl)propanoic acid]
- EC50 (human S1PR3 receptor): > 1000 nM
- EC50 (human S1PR5 receptor): < 10 nM
- EC50 (human S1PR1 receptor): > 1000 nM
- EC50 (human S1PR4 receptor): > 1000 nM

Compound: Cc1c(COc2ccc(-c3ncc4c(n3)CCN(CC(C)CC(=O)O)C4)cc2)cccc1C(F)(F)F (centres unmarked) [Compound 246, 3-methyl-4-[2-[4-[[2-methyl-3-(trifluoromethyl)phenyl]methoxy]phenyl]-7,8-dihydro-5H-pyrido[4,3-d]pyrimidin-6-yl]butanoic acid 2,2,2-trifluoroacetic acid salt]
- EC50 (human S1PR3 receptor): > 1000 nM
- EC50 (human S1PR5 receptor): < 10 nM
- EC50 (human S1PR1 receptor): > 1000 nM
- EC50 (human S1PR4 receptor): > 1000 nM

Compound: O=C(O)CC1CC(N2CCc3nc(-c4ccc(OCc5ccc(Cl)cc5)cc4)ncc3C2)C1 (centres unmarked) [Compound 2, 2-(3-(2-(4-((4-chlorobenzyl)oxy)phenyl)-7,8-dihydropyrido[4,3-d]pyrimidin-6(5H)-yl)cyclobutyl)acetic acid]
- EC50 (human S1PR3 receptor): > 1000 nM
- EC50 (human S1PR5 receptor): 100 to 1000 nM
- EC50 (human S1PR1 receptor): > 1000 nM
- EC50 (human S1PR4 receptor): > 1000 nM

Compound: CC(CC(=O)O)CN1CCc2nc(-c3ccc(OCc4ccc(Cl)cc4)cc3)ncc2C1 (single isomer, unassigned; (+)) [Compound 212, (+)-4-(2-(4-((4-chlorobenzyl)oxy)phenyl)-7,8-dihydropyrido[4,3-d]pyrimidin-6(5H)-yl)-3-methylbutanoic acid]
- EC50 (human S1PR3 receptor): > 1000 nM
- EC50 (human S1PR5 receptor): < 10 nM
- EC50 (human S1PR1 receptor): > 1000 nM
- EC50 (human S1PR4 receptor): > 1000 nM

Compound: Cc1cc(-c2ccc3c(n2)CCN(CCC(=O)O)C3)ccc1OCc1ccc(C(F)(F)F)cc1 [Compound 167, 3-(2-(3-methyl-4-((4-(trifluoromethyl)benzyl)oxy)phenyl)-7,8-dihydro-1,6-naphthyridin-6(5H)-yl)propanoic acid]
- EC50 (human S1PR3 receptor): > 1000 nM
- EC50 (human S1PR5 receptor): < 10 nM
- EC50 (human S1PR1 receptor): > 1000 nM
- EC50 (human S1PR4 receptor): > 1000 nM
